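1) Cells in 96-well plates. 2) Compound, 48 h, 5 concentrations. 3) Linear interpolation between surrounding doses. 4) Unreached endpoint = highest concentration. At the GI50, growth is halved. The concentration for full growth arrest is given as TGI.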
Assays:
Test in all cases: growth of human tumour cells (NCI), 48 h
786-0 renal = system: 786-0 renal
A498 renal = system: A498 renal
A549 NSCLC = system: A549 NSCLC
ACHN renal = system: ACHN renal
BT-549 breast = system: BT-549 breast
CAKI-1 renal = system: CAKI-1 renal
CCRF-CEM leukemia = system: CCRF-CEM leukemia
COLO 205 colon = system: COLO 205 colon
DU-145 prostate = system: DU-145 prostate
HCC-2998 colon = system: HCC-2998 colon
HCT-116 colon = system: HCT-116 colon
HCT-15 colon = system: HCT-15 colon
HL-60(TB) leukemia = system: HL-60(TB) leukemia
HOP-62 NSCLC = system: HOP-62 NSCLC
HOP-92 NSCLC = system: HOP-92 NSCLC
HS 578T breast = system: HS 578T breast
HT29 colon = system: HT29 colon
IGROV1 ovarian = system: IGROV1 ovarian
K-562 leukemia = system: K-562 leukemia
KM12 colon = system: KM12 colon
LOX IMVI melanoma = system: LOX IMVI melanoma
M14 melanoma = system: M14 melanoma
MALME-3M melanoma = system: MALME-3M melanoma
MCF7 breast = system: MCF7 breast
MDA-MB-231 breast = system: MDA-MB-231 breast
MDA-MB-435 = system: MDA-MB-435
MOLT-4 leukemia = system: MOLT-4 leukemia
NCI-H226 lung = system: NCI-H226 lung
NCI-H23 lung = system: NCI-H23 lung
NCI-H460 lung = system: NCI-H460 lung
NCI-H522 lung = system: NCI-H522 lung
OVCAR-3 ovarian = system: OVCAR-3 ovarian
OVCAR-4 ovarian = system: OVCAR-4 ovarian
OVCAR-5 ovarian = system: OVCAR-5 ovarian
OVCAR-8 ovarian = system: OVCAR-8 ovarian
PC-3 prostate = system: PC-3 prostate
RPMI-8226 leukemia = system: RPMI-8226 leukemia
RXF 393 renal = system: RXF 393 renal
SF-268 CNS = system: SF-268 CNS
SF-295 CNS = system: SF-295 CNS
SK-MEL-5 melanoma = system: SK-MEL-5 melanoma
SK-OV-3 ovarian = system: SK-OV-3 ovarian
SN12C renal = system: SN12C renal
SNB-19 CNS = system: SNB-19 CNS
SNB-75 CNS = system: SNB-75 CNS
SR leukemia = system: SR leukemia
SW-620 colon = system: SW-620 colon
T-47D breast = system: T-47D breast
TK-10 renal = system: TK-10 renal
U251 CNS = system: U251 CNS
UACC-257 melanoma = system: UACC-257 melanoma
UACC-62 melanoma = system: UACC-62 melanoma
UO-31 renal = system: UO-31 renal

Compound: N#CCCNc1nonc1-c1nc2ccccc2n1CC(=O)c1ccc(NC(=O)[C@@H](N)CCCCN)cc1
- GI50 (786-0 renal): 55.7 nM
- TGI (786-0 renal): > 100000 nM
- GI50 (A498 renal): 15.4 nM
- TGI (A498 renal): 1890 nM
- GI50 (A549 NSCLC): 46.3 nM
- TGI (A549 NSCLC): > 100000 nM
- GI50 (ACHN renal): 58.3 nM
- TGI (ACHN renal): > 100000 nM
- GI50 (BT-549 breast): 31.1 nM
- GI50 (CAKI-1 renal): 61 nM
- TGI (CAKI-1 renal): > 100000 nM
- GI50 (CCRF-CEM leukemia): 36.8 nM
- TGI (CCRF-CEM leukemia): > 100000 nM
- GI50 (COLO 205 colon): 27.3 nM
- TGI (COLO 205 colon): 70.9 nM
- GI50 (DU-145 prostate): 32.3 nM
- TGI (DU-145 prostate): 99.4 nM
- GI50 (HCC-2998 colon): 30.8 nM
- TGI (HCC-2998 colon): > 92200 nM
- GI50 (HCT-116 colon): 40 nM
- TGI (HCT-116 colon): > 100000 nM
- GI50 (HCT-15 colon): 35.6 nM
- TGI (HCT-15 colon): > 100000 nM
- GI50 (HL-60(TB) leukemia): 31.7 nM
- GI50 (HOP-62 NSCLC): 56.2 nM
- TGI (HOP-62 NSCLC): > 100000 nM
- GI50 (HOP-92 NSCLC): 487 nM
- TGI (HOP-92 NSCLC): > 100000 nM
- GI50 (HS 578T breast): 908 nM
- TGI (HS 578T breast): > 100000 nM
- GI50 (HT29 colon): 32.6 nM
- TGI (HT29 colon): > 33300 nM
- GI50 (IGROV1 ovarian): 110 nM
- TGI (IGROV1 ovarian): > 100000 nM
- GI50 (K-562 leukemia): 32.2 nM
- TGI (K-562 leukemia): > 100000 nM
- GI50 (KM12 colon): 27.9 nM
- GI50 (LOX IMVI melanoma): 51.3 nM
- TGI (LOX IMVI melanoma): > 100000 nM
- GI50 (M14 melanoma): 19.9 nM
- TGI (M14 melanoma): 68.5 nM
- GI50 (MALME-3M melanoma): > 100000 nM
- TGI (MALME-3M melanoma): > 100000 nM
- GI50 (MCF7 breast): 30.2 nM
- TGI (MCF7 breast): > 100000 nM
- GI50 (MDA-MB-231 breast): 59.9 nM
- TGI (MDA-MB-231 breast): > 100000 nM
- TGI (MDA-MB-435): 74.2 nM
- GI50 (MOLT-4 leukemia): 45.1 nM
- TGI (MOLT-4 leukemia): > 100000 nM
- TGI (NCI-H226 lung): > 100000 nM
- GI50 (NCI-H23 lung): 48.3 nM
- GI50 (NCI-H460 lung): 34.4 nM
- TGI (NCI-H460 lung): > 100000 nM
- GI50 (NCI-H522 lung): 36.3 nM
- TGI (NCI-H522 lung): > 100000 nM
- GI50 (OVCAR-3 ovarian): 23.5 nM
- TGI (OVCAR-3 ovarian): 54.2 nM
- GI50 (OVCAR-4 ovarian): 43.6 nM
- TGI (OVCAR-4 ovarian): > 100000 nM
- GI50 (OVCAR-5 ovarian): 64.4 nM
- TGI (OVCAR-5 ovarian): > 100000 nM
- GI50 (OVCAR-8 ovarian): 55.4 nM
- TGI (OVCAR-8 ovarian): > 100000 nM
- GI50 (PC-3 prostate): 46 nM
- TGI (PC-3 prostate): > 100000 nM
- GI50 (RPMI-8226 leukemia): 43.4 nM
- TGI (RPMI-8226 leukemia): > 100000 nM
- GI50 (RXF 393 renal): 35.3 nM
- TGI (RXF 393 renal): > 100000 nM
- GI50 (SF-268 CNS): 71 nM
- TGI (SF-268 CNS): > 100000 nM
- GI50 (SF-295 CNS): 16 nM
- TGI (SF-295 CNS): > 100000 nM
- GI50 (SK-MEL-5 melanoma): 30 nM
- TGI (SK-MEL-5 melanoma): 197 nM
- GI50 (SK-OV-3 ovarian): 31.3 nM
- TGI (SK-OV-3 ovarian): > 100000 nM
- GI50 (SN12C renal): 49.8 nM
- TGI (SN12C renal): > 100000 nM
- GI50 (SNB-19 CNS): > 100000 nM
- TGI (SNB-19 CNS): > 100000 nM
- GI50 (SNB-75 CNS): 10.6 nM
- TGI (SNB-75 CNS): > 100000 nM
- GI50 (SR leukemia): 25 nM
- TGI (SR leukemia): > 100000 nM
- GI50 (SW-620 colon): 44.3 nM
- TGI (SW-620 colon): > 100000 nM
- GI50 (T-47D breast): > 73800 nM
- TGI (T-47D breast): > 100000 nM
- GI50 (TK-10 renal): 11900 nM
- TGI (TK-10 renal): > 100000 nM
- GI50 (U251 CNS): 44.5 nM
- TGI (U251 CNS): > 100000 nM
- GI50 (UACC-257 melanoma): > 100000 nM
- TGI (UACC-257 melanoma): > 100000 nM
- GI50 (UACC-62 melanoma): 21.3 nM
- TGI (UACC-62 melanoma): > 100000 nM
- GI50 (UO-31 renal): 282 nM
- TGI (UO-31 renal): > 100000 nM
